Test results taken from patent publication US9000027B2, “Chk1 suppresses a caspase-2 apoptotic response to DNA damage that bypasses p53, bcl-2 and caspase-3” (Dana-Farber Cancer Institute, Inc., priority 2008, dated 2015).

Legend:
Chk1 = biological target: T1, Chk1 (Homo sapiens, UniProt O14757); experiment: Western blot of Chk1 activity (Cdc2 Tyr15 and CDC25C Ser216 phosphorylation) in irradiated HeLa cells; format: cell-based; set-up: endogenous in cells; host or cells: HeLa; conditions: 10 Gy
T1 sequence (O14757 1-476): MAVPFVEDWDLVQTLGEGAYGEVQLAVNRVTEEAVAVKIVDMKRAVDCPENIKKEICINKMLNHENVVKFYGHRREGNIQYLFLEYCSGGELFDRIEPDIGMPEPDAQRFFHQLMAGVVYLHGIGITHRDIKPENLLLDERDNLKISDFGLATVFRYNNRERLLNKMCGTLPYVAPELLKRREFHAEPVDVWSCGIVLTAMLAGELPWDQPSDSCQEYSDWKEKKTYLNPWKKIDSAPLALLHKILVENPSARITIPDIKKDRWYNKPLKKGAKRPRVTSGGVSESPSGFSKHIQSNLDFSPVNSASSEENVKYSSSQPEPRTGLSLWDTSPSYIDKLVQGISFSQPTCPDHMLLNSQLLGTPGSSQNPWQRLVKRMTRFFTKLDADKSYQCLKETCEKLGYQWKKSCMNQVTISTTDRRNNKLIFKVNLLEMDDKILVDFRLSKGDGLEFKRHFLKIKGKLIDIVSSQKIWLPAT
Procedure: Protein extract (5-60 μg) was added to 4× gel loading buffer and 10× denaturing solution (Invitrogen) in appropriate proportions, and samples were incubated at 70° C. for 10 min. Samples were run at 200V for 1 hr on a 4-12% Bis-tris gradient gel (Invitrogen). After electrophoresis, samples were transferred for 1.5 hr (350 mA) to a Nitrocellulose membrane (Millipore) using a submerged transfer apparatus (Bio-Rad). Membranes were then blocked with 5% milk in Tris-buffered saline with 0.1% tween (TBST) and probed overnight at 4° C. with the following antibodies: anti-zebrafish Chk1 (diluted 1:200), anti-zebrafish Chk2 (1:200), anti-P-Cdc2 (1:1000), anti-actin (1:2000), anti-human ATR (1:500) and Stressgen anti-human-caspase-3 (1:500) for zebrafish immunoblots; and anti-caspase-2 (1:200), Upstate anti-caspase-3 (1:500), anti-P-ATM (1:500), anti-ATM (1:500), Santa Cruz anti-human Chk1 (1:1000), Santa Cruz anti-human Chk2 (1:1000), anti-P-Chk1 (1:500), anti-P-Chk2 (1:500), anti-P-H2A.X (1:2000), anti-P-cdc25C (1:1000), anti-P-HSP27 (1:1000), anti-HSP27 (1:1000), anti-P-Cdc2 (1:1000), anti-p53 (1:1000) and anti-GAPDH (1:5000) for immunoblots of human tumor cell lysates. Detailed references for all primary antibodies can be found in the ‘Antibodies’ section elsewhere herein.

p53^e7/e7 mutant embryos = experiment: Morpholino screen for suppressors of p53^e7/e7 radioresistance (live AO assay); format: in vivo, zebrafish; conditions: p53^e7/e7, 12.5 Gy at 18 hpf, 7.5 hpIR
Procedure: We used morpholino antisense oligonucleotides (MOs) to knock down the expression levels of 8 zebrafish S- and G2-checkpoint kinases in p53^e7/e7 mutant embryos and assessed the ability of each knockdown to restore cell death (AO reactivity) at 7.5 hours post-IR (hpIR). We also tested several double-knockdown combinations, as well as knockdowns of non-kinase checkpoint regulators (p21^waf1/cip1 and smc1). For each knockdown, we scored a minimum of 50 embryos and quantified AO staining in at least 5 embryos. To avoid the isolation of false-positives, we adjusted the concentrations of each MO to the maximal dose compatible with normal embryonic development in the p53^e7/e7 background.
Morpholino oligonucleotides (MOs) synthesized by Gene Tools™ LLC, were resuspended in sterile water at a concentration of 1 mM and delivered into zebrafish embryos at the one-cell stage by microinjection. […] For each previously unpublished MO, the working concentration was determined as the highest dose compatible with normal zebrafish development in the p53^e7/e7 background (maximal subtoxic concentration). […]
Live zebrafish embryos were dechorionated in pronase (2.0 mg/mL in egg water) for 3 to 5 min and rinsed five times in egg water at 18 hpf. […] Lateral images of each zebrafish were acquired on a Zeiss Axioplan2 fluorescence microscope (5× lens), using OpenLab software and a Hammamatsu C4742-95 digital camera. […]

| Compound | Chk1 inhibition (Chk1; 1 μM) | phosphorylation of Chk1 readouts CDC2 and CDC25C (Chk1; increasing concentrations, 24 hpIR) | AO reactivity restored, of the p53+/+ response (p53^e7/e7 mutant embryos) [%] |
| --- | --- | --- | --- |
| Cn1c2ccccc2c2c3c(c4c5ccccc5n(CCC#N)c4c21)CNC3=O [Gö6976] | potent Chk1 inhibition | inhibited the phosphorylation of CDC2 and CDC25C | – |
| chk1 MO: morpholino against zebrafish chk1 atg/5'UTR, aggcacagccattatgcaatcttcg (SEQ ID NO: 11) (AGGCACAGCCATTATGCAATCTTCG; all phosphorodiamidate morpholino (PMO)) | – | – | 87.7 |
